For orientation: IC50 means the concentration that gives 50% inhibition.

Activity calls are given as the source filed them. How the calls were made is not given here. Where a SMILES comes first, the peptide text is derived from it. The star is where a group is joined. Boc = CC(C)(C)OC(=O)* Where only a bound is given, the exact number is not on record here.

Chain of DNA-directed RNA polymerase subunit beta (Escherichia coli (strain K12)) (P0A8V2 whole entry, looked up): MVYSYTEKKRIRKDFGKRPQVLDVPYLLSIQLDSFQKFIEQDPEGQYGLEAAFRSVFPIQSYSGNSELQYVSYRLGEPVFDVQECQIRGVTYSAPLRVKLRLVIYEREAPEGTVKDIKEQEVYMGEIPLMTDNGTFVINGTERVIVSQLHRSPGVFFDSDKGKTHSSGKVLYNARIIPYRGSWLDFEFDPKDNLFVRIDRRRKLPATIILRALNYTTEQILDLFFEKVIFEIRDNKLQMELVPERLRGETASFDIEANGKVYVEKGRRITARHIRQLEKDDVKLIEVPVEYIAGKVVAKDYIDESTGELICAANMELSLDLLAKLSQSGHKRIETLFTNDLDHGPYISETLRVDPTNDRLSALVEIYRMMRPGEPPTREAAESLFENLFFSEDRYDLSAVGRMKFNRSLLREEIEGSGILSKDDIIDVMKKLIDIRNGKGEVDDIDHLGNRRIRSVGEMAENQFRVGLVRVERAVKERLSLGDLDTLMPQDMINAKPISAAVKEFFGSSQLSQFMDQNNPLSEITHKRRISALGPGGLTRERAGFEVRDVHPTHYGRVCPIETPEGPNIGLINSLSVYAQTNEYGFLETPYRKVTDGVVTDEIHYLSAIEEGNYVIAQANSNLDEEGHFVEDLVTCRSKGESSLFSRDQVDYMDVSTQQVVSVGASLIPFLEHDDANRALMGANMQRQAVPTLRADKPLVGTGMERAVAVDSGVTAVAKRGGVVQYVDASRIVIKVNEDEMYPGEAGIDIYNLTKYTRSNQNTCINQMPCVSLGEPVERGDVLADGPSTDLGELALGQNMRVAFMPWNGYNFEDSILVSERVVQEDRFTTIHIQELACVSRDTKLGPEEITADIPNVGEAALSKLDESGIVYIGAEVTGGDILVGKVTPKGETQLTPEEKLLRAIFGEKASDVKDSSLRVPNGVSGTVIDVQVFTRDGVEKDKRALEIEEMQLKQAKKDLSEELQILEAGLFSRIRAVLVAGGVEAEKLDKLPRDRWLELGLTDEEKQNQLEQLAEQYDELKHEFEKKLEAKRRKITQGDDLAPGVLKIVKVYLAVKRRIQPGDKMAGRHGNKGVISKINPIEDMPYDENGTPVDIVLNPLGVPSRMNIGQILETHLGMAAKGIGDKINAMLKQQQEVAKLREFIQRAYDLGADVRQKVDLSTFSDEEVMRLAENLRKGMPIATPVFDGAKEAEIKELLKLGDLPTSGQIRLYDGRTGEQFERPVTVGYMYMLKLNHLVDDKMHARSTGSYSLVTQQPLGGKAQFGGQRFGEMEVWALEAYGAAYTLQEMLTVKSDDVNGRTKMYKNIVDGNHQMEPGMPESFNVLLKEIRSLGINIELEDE

The assay concerns the target DNA-directed RNA polymerase subunit beta (Escherichia coli (strain K12)) (UniProt P0A8V2). The experiment in a line: E. coli RNAP inhibitors, dose response, biochemical, confirmation (AID 826). Particulars: E. coli RNA polymerase biochemical transcription assay.
For `O=C1N(O)C2(C=CCCC2)/C(=N\O)C12CCCCC2` (configuration not stated), the IC50 was > 50 µM (inactive).
With `CCCCn1c(O)c(C(CC)=NCCCN(C)C)c(=O)[nH]c1=O`, the IC50 is > 50 µM (inactive).
To `COc1ccc(C2=NO[C@@H]3C(=O)N(c4c(C)cccc4C)C(=O)[C@H]23)cc1OC` belongs > 50 µM (inactive); to `COCCN1C(=O)C(O)=C(C(C)=O)C1c1ccc(OC)c(OC)c1` (configuration not stated), > 50 µM (inactive); to `CCOC(=O)C1=C(c2ccccc2)OC(N)=C(C#N)C1C(C)C` (configuration not stated), > 50 µM (inactive).
Consider `CC(=O)C1=C(C)Nc2cc(C(F)(F)F)ccc2S1`, for which the IC50 is > 50 µM (inactive).
With `CC(C)(C)OC(=O)N1CCCC1C(=O)N1CCCC1C(=O)N1CCCC1C(=O)O` (stereo not drawn) (Boc-Pro-Pro-Pro-OH; configuration not given here), the IC50 is > 50 µM (inactive).

These data come from PubChem BioAssay AID826 (PCMD, 2007).
